What was measured:
[1] = test system: MDA-MB-468; test: Growth inhibition of human MDA-MB-468 cells assessed as cell growth at 10 uM after 48 hrs by sulforhodamine B assay; format: functional; details: MDA-MB-468, 48 h, read-out: Activity
[2] = test system: UO-31; test: Growth inhibition of human UO31 cells assessed as cell growth at 10 uM after 48 hrs by sulforhodamine B assay; format: functional; details: UO-31, 48 h, read-out: Activity
[3] = test system: PC-3; test: Growth inhibition of human PC3 cells assessed as cell growth at 10 uM after 48 hrs by sulforhodamine B assay; format: functional; details: PC-3, 48 h, read-out: Activity
[4] = test system: HCT-15; test: Growth inhibition of human HCT15 cells after 48 hrs by sulforhodamine B assay; format: functional; details: HCT-15, 48 h
[5] = test system: NCI-H522; test: Growth inhibition of human NCI-H522 cells after 48 hrs by sulforhodamine B assay; format: functional; details: NCI-H522, 48 h
[6] = test system: COLO 205; test: Growth inhibition of human COLO205 cells after 48 hrs by sulforhodamine B assay; format: functional; details: COLO 205, 48 h
[7] = test system: NCI-H460; test: Growth inhibition of human NCI-H460 cells after 48 hrs by sulforhodamine B assay; format: functional; details: NCI-H460, 48 h
[8] = test system: HOP-62; test: Growth inhibition of human HOP62 cells after 48 hrs by sulforhodamine B assay; format: functional; details: HOP-62, 48 h
[9] = test system: HOP-92; test: Growth inhibition of human HOP92 cells after 48 hrs by sulforhodamine B assay; format: functional, cell-based; details: HOP-92, 48 h
[10] = test system: K562; test: Growth inhibition of human K562 cells after 48 hrs by sulforhodamine B assay; format: functional; details: K562, 48 h
[11] = test system: HL-60(TB); test: Growth inhibition of human HL-60(TB) cells after 48 hrs by sulforhodamine B assay; format: functional; details: HL-60, 48 h
[12] = test system: OVCAR-5; test: Growth inhibition of human OVCAR5 cells assessed as cell growth at 10 uM after 48 hrs by sulforhodamine B assay; format: functional; details: OVCAR-5, 48 h, read-out: Activity
[13] = test system: OVCAR-8; test: Growth inhibition of human OVCAR8 cells assessed as cell growth at 10 uM after 48 hrs by sulforhodamine B assay; format: functional; details: OVCAR-8, 48 h, read-out: Activity
[14] = test system: OVCAR-3; test: Growth inhibition of human OVCAR3 cells assessed as cell growth at 10 uM after 48 hrs by sulforhodamine B assay; format: functional; details: OVCAR-3, 48 h, read-out: Activity
[15] = test system: SK-MEL-2; test: Growth inhibition of human SK-MEL-2 cells assessed as cell growth at 10 uM after 48 hrs by sulforhodamine B assay; format: functional; details: SK-MEL-2, 48 h, read-out: Activity
[16] = test system: M14; test: Growth inhibition of human M14 cells assessed as cell growth at 10 uM after 48 hrs by sulforhodamine B assay; format: functional; details: M14, 48 h, read-out: Activity
[17] = test system: SW-620; test: Growth inhibition of human SW620 cells assessed as cell growth at 10 uM after 48 hrs by sulforhodamine B assay; format: functional; details: SW-620, 48 h, read-out: Activity
[18] = test system: HT-29; test: Growth inhibition of human HT-29 cells assessed as cell growth at 10 uM after 48 hrs by sulforhodamine B assay; format: functional; details: HT-29, 48 h, read-out: Activity
[19] = test system: KM12; test: Growth inhibition of human KM12 cells assessed as cell growth at 10 uM after 48 hrs by sulforhodamine B assay; format: functional; details: KM12, 48 h, read-out: Activity
[20] = test system: HCT-15; test: Growth inhibition of human HCT15 cells assessed as cell growth at 10 uM after 48 hrs by sulforhodamine B assay; format: functional; details: HCT-15, 48 h, read-out: Activity
[21] = test system: NCI-H522; test: Growth inhibition of human NCI-H522 cells assessed as cell growth at 10 uM after 48 hrs by sulforhodamine B assay; format: functional; details: NCI-H522, 48 h, read-out: Activity
[22] = test system: NCI-H23; test: Growth inhibition of human NCI-H23 cells assessed as cell growth at 10 uM after 48 hrs by sulforhodamine B assay; format: functional; details: NCI-H23, 48 h, read-out: Activity
[23] = test system: BT-549; test: Growth inhibition of human BT549 cells after 48 hrs by sulforhodamine B assay; format: functional; details: BT-549, 48 h
[24] = test system: T47D; test: Growth inhibition of human T47D cells after 48 hrs by sulforhodamine B assay; format: functional
[25] = test system: DU-145; test: Growth inhibition of human DU145 cells after 48 hrs by sulforhodamine B assay; format: functional; details: DU-145, 48 h
[26] = test system: CAKI-1; test: Growth inhibition of human CAKI-1 cells after 48 hrs by sulforhodamine B assay; format: functional; details: CAKI-1, 48 h
[27] = test system: 786-0; test: Growth inhibition of human 786-0 cells after 48 hrs by sulforhodamine B assay; format: functional; details: 786-0, 48 h
[28] = test system: SK-OV-3; test: Growth inhibition of human SKOV3 cells after 48 hrs by sulforhodamine B assay; format: functional; details: SK-OV-3, 48 h
[29] = test system: OVCAR-8; test: Growth inhibition of human OVCAR8 cells after 48 hrs by sulforhodamine B assay; format: functional; details: OVCAR-8, 48 h
[30] = test system: SK-MEL-28; test: Growth inhibition of human SK-MEL-28 cells after 48 hrs by sulforhodamine B assay; format: functional; details: SK-MEL-28, 48 h
[31] = test system: LOX IMVI; test: Growth inhibition of human LOXIMVI cells after 48 hrs by sulforhodamine B assay; format: functional
[32] = test system: SF-539; test: Growth inhibition of human SF539 cells after 48 hrs by sulforhodamine B assay; format: functional; details: SF-539, 48 h
[33] = test system: RPMI-8226; test: Growth inhibition of human RPMI8226 cells assessed as cell growth at 10 uM after 48 hrs by sulforhodamine B assay; format: functional; details: RPMI-8226, 48 h, read-out: Activity
[34] = test system: MOLT-4; test: Growth inhibition of human MOLT4 cells assessed as cell growth at 10 uM after 48 hrs by sulforhodamine B assay; format: functional; details: MOLT-4, 48 h, read-out: Activity
[35] = read-out: LC50 (the source's name)

COc1cc(-c2nn(-c3cccc(NC(=O)Nc4ccc(Cl)c(Cl)c4)c3)cc2-c2ccncc2)ccc1Cl
growth at 10 µM [1]: 2.14% | growth at 10 µM [2]: 15.9% | growth at 10 µM [3]: -17.6% | GI50 [4]: 1230 nM | LC50 [4]: > 50000 nM | TGI [4]: > 50000 nM | GI50 [5]: 811 nM | LC50 (concentration killing 50% of cells) [5]: > 50000 nM | TGI [5]: 3100 nM | GI50 [6]: 937 nM | LC50 (concentration killing 50% of cells) [6]: 3140 nM | TGI [6]: 1720 nM | GI50 [7]: 1110 nM | LC50 [7]: > 50000 nM | TGI [7]: > 50000 nM | GI50 [8]: 1440 nM | TGI [8]: 4900 nM | CC50 [8, 35]: > 50000 nM | GI50 [9]: 151 nM | IC50 [9]: 150 nM | LC50 [9]: > 50000 nM | TGI [9]: 1470 nM | GI50 [10]: 890 nM | TGI [10]: > 50000 nM | CC50 [10, 35]: > 50000 nM | GI50 [11]: 1660 nM | TGI [11]: > 50000 nM | CC50 [11, 35]: > 50000 nM | growth at 10 µM [12]: 38% | growth at 10 µM [13]: -17.2% | growth at 10 µM [14]: -10% | growth at 10 µM [15]: -44.2% | growth at 10 µM [16]: 0.29% | growth at 10 µM [17]: 13.4% | growth at 10 µM [18]: 1.12% | growth at 10 µM [19]: 1.3% | growth at 10 µM [20]: 12.7% | growth at 10 µM [21]: -14.7% | growth at 10 µM [22]: 1.67% | GI50 [23]: 1680 nM | LC50 (50% lethal concentration) [23]: > 50000 nM | TGI [23]: 27600 nM | GI50 [24]: 1420 nM | TGI [24]: > 50000 nM | CC50 [24, 35]: > 50000 nM | GI50 [25]: 1520 nM | LC50 [25]: > 50000 nM | TGI [25]: 34200 nM | GI50 [26]: 1120 nM | TGI [26]: 3700 nM | CC50 [26, 35]: > 50000 nM | GI50 [27]: 1310 nM | TGI [27]: 4470 nM | CC50 [27, 35]: > 50000 nM | GI50 [28]: 1930 nM | TGI [28]: > 50000 nM | CC50 [28, 35]: > 50000 nM | GI50 [29]: 931 nM | TGI [29]: 3610 nM | CC50 [29, 35]: > 50000 nM | GI50 [30]: 1430 nM | LC50 [30]: > 50000 nM | TGI [30]: 7320 nM | GI50 [31]: 954 nM | LC50 [31]: > 50000 nM | TGI [31]: 2620 nM | GI50 [32]: 965 nM | LC50 (concentration killing 50% of cells) [32]: > 50000 nM | TGI [32]: 3080 nM | growth at 10 µM [33]: -11.6% | growth at 10 µM [34]: -11.1%

— ChEMBL document CHEMBL2440076, “New triarylpyrazoles as broad-spectrum anticancer agents: design, synthesis, and biological evaluation” (Eur J Med Chem, 2013)
